Experimental data reported in US7833967B2, “Synthetic antimicrobial polypeptides” (priority 2003, dated 2010).

Test system: E. coli TOP10
Test: Suicide expression system (SES) growth inhibition
Format: cell-based
Settings: Table 4; variants of SEQ ID NO:10, re-tested in the Bioscreen C

Point of comparison: “127 (RRRPIRPPFRPPLRPPFRPPFRPPLRP; Synthetic antimicrobial peptide) [compound 127]”, “Growth inhibition (%)” value 67%. Against it:
- 106 (RRRPFRPPFRPPFRPPIRPPIRPPLRP; Synthetic antimicrobial peptide) [compound 106] — higher, 75%
- 107 (RRRPFRPPFRPPVRPPFRPPIRPPFRP; Synthetic antimicrobial peptide) [compound 107] — higher, 69%
- 108 (RRRPLRPPFRPPIRPPVRPPVRPPFRP; Synthetic antimicrobial peptide) [compound 108] — higher, 76%
- 109 (RRRPFRPPIRPPVRPPLRPPVRPPFRP; Synthetic antimicrobial peptide) [compound 109] — higher, 71%
- 110 (RRRPFRPPLRPPFRPPIRPPIRPPVRP; Synthetic antimicrobial peptide) [compound 110] — higher, 73%
- 111 (RRRPLRPPVRPPFRPPVRPPLRPPFRP; Synthetic antimicrobial peptide) [compound 111] — lower, 59%
- 112 (RRRPFRPPIRPPFRPPVRPPVRPPVRP; Synthetic antimicrobial peptide) [compound 112] — higher, 69%
- 113 (RRRPLRPPVRPPFRPPVRPPFRPPFRP; Synthetic antimicrobial peptide) [compound 113] — higher, 75%
- 114 (RRRPLRPPLRPPFRPPLRPPFRPPFRP; Synthetic antimicrobial peptide) [compound 114] — higher, 74%
- 115 (RRRPLRPPFRPPIRPPFRPPFRPPFRP; Synthetic antimicrobial peptide) [compound 115] — higher, 79%
- 116 (RRRPIRPPFRPPFRPPVRPPIRPPFRP; Synthetic antimicrobial peptide) [compound 116] — higher, 69%
- 117 (RRRPIRPPIRPPFRPPFRPPIRPPFRP; Synthetic antimicrobial peptide) [compound 117] — higher, 77%
- 118 (RRRPFRPPFRPPLRPPFRPPVRPPLRP; Synthetic antimicrobial peptide) [compound 118] — higher, 73%
- 119 (RRRPIRPPFRPPIRPPFRPPVRPPVRP; Synthetic antimicrobial peptide) [compound 119] — higher, 69%
- 120 (RRRPLRPPFRPPFRPPFRPPVRPPIRP; Synthetic antimicrobial peptide) [compound 120] — higher, 68%
- 121 (RRRPIRPPLRPPVRPPIRPPFRPPFRP; Synthetic antimicrobial peptide) [compound 121] — lower, 65%
- 122 (RRRPFRPPFRPPFRPPVRPPFRPPLRP; Synthetic antimicrobial peptide) [compound 122] — lower, 64%
- 123 (RRRPFRPPLRPPIRPPIRPPFRPPFRP; Synthetic antimicrobial peptide) [compound 123] — lower, 65%
- 124 (RRRPFRPPIRPPLRPPVRPPLRPPFRP; Synthetic antimicrobial peptide) [compound 124] — higher, 73%
- 125 (RRRPIRPPFRPPLRPPFRPPVRPPVRP; Synthetic antimicrobial peptide) [compound 125] — higher, 73%
- 126 (RRRPIRPPIRPPLRPPFRPPFRPPFRP; Synthetic antimicrobial peptide) [compound 126] — higher, 77%
- 128 (RRRPFRPPFRPPLRPPFRPPVRPPLRP; Synthetic antimicrobial peptide) [compound 128] — higher, 69%
- 129 (RRRPFRPPFRPPVRPPFRPPIRPPLRP; Synthetic antimicrobial peptide) [compound 129] — higher, 69%
- 130 (RRRPFRPPIRPPLRPPFRPPVRPPLRP; Synthetic antimicrobial peptide) [compound 130] — higher, 78%
- 131 (RRRPIRPPFRPPFRPPIRPPIRPPVRP; Synthetic antimicrobial peptide) [compound 131] — higher, 75%
- 132 (RRRPFRPPFRPPLRPPVRPPVRPPIRP; Synthetic antimicrobial peptide) [compound 132] — higher, 72%
- 133 (RRRPFRPPIRPPFRPPVRPPIRPPVRP; Synthetic antimicrobial peptide) [compound 133] — lower, 62%
- 134 (RRRPFRPPFRPPFRPPVRPPLRPPVRP; Synthetic antimicrobial peptide) [compound 134] — higher, 68%
- 135 (RRRPIRPPIRPPIRPPIRPPIRPPLRP; Synthetic antimicrobial peptide) [compound 135] — lower, 38%
- 136 (RRRPFRPPFRPPIRPPFRPPIRPPLRP; Synthetic antimicrobial peptide) [compound 136] — higher, 77%
- 137 (RRRPLRPPFRPPFRPPIRPPFRPPVRP; Synthetic antimicrobial peptide) [compound 137] — lower, 58%
- 138 (RRRPLRPPFRPPVRPPFRPPFRPPFRP; Synthetic antimicrobial peptide) [compound 138] — higher, 78%
- 139 (RRRPFRPPFRPPIRPPFRPPIRPPVRP; Synthetic antimicrobial peptide) [compound 139] — the same, 67%
- 140 (RRRPIRPPIRPPFRPPVRPPVRPPFRP; Synthetic antimicrobial peptide) [compound 140] — higher, 70%
- 141 (RRRPIRPPIRPPFRPPFRPPLRPPIRP; Synthetic antimicrobial peptide) [compound 141] — lower, 65%
- 142 (RRRPLRPPIRPPVRPPFRPPVRPPFRP; Synthetic antimicrobial peptide) [compound 142] — higher, 70%
- 143 (RRRPFRPPVRPPVRPPFRPPLRPPVRP; Synthetic antimicrobial peptide) [compound 143] — lower, 43%
- 144 (RRRPIRPPLRPPVRPPVRPPFRPPFRP; Synthetic antimicrobial peptide) [compound 144] — lower, 64%
- 145 (RRRPLRPPVRPPFRPPFRPPLRPPFRP; Synthetic antimicrobial peptide) [compound 145] — lower, 59%
- 146 (RRRPLRPPFRPPIRPPFRPPFRPPLRP; Synthetic antimicrobial peptide) [compound 146] — higher, 68%
- 147 (RRRPFRPPFRPPIRPPVRPPVRPPFRP; Synthetic antimicrobial peptide) [compound 147] — higher, 79%
- 148 (RRRPIRPPFRPPFRPPFRPPFRPPLRP; Synthetic antimicrobial peptide) [compound 148] — higher, 76%
- 149 (RRRPIRPPIRPPFRPPFRPPVRPPVRP; Synthetic antimicrobial peptide) [compound 149] — lower, 62%
- 150 (RRRPIRPPIRPPFRPPIRPPFRPPVRP; Synthetic antimicrobial peptide) [compound 150] — higher, 68%
- 151 (RRRPLRPPVRPPLRPPVRPPFRPPFRP; Synthetic antimicrobial peptide) [compound 151] — higher, 68%
- 152 (RRRPFRPPFRPPFRPPFRPPVRPPIRP; Synthetic antimicrobial peptide) [compound 152] — higher, 75%
- 153 (RRRPIRPPFRPPIRPPVRPPIRPPFRP; Synthetic antimicrobial peptide) [compound 153] — higher, 68%
- 154 (RRRPFRPPFRPPVRPPVRPPFRPPFRP; Synthetic antimicrobial peptide) [compound 154] — higher, 75%
- 155 (RRRPFRPPFRPPFRPPFRPPFRPPLRP; Synthetic antimicrobial peptide) [compound 155] — higher, 83%
- 156 (RRRPFRPPLRPPFRPPFRPPIRPPFRP; Synthetic antimicrobial peptide) [compound 156] — the same, 67%
- 157 (RRRPIRPPFRPPIRPPFRPPVRPPLRP; Synthetic antimicrobial peptide) [compound 157] — lower, 64%
- 158 (RRRPIRPPFRPPIRPPIRPPIRPPVRP; Synthetic antimicrobial peptide) [compound 158] — the same, 67%
- 159 (RRRPVRPPIRPPIRPPVRPPLRPPVRP; Synthetic antimicrobial peptide) [compound 159] — lower, 35%
- 160 (RRRPFRPPVRPPFRPPVRPPFRPPFRP; Synthetic antimicrobial peptide) [compound 160] — higher, 77%
- 161 (RRRPFRPPVRPPIRPPVRPPFRPPFRP; Synthetic antimicrobial peptide) [compound 161] — higher, 78%
- 162 (RRRPFRPPIRPPFRPPFRPPLRPPLRP; Synthetic antimicrobial peptide) [compound 162] — higher, 68%
- 163 (RRRPIRPPFRPPFRPPFRPPIRPPIRP; Synthetic antimicrobial peptide) [compound 163] — higher, 79%
- 164 (RRRPFRPPIRPPLRPPFRPPFRPPFRP; Synthetic antimicrobial peptide) [compound 164] — higher, 78%
- 165 (RRRPFRPPLRPPFRPPVRPPLRPPVRP; Synthetic antimicrobial peptide) [compound 165] — lower, 65%
